Data on 13 compounds can be found in US10464918B2, “Process of making somatostatin modulators” (Crinetics Pharmaceuticals, Inc., priority 2018, dated 2019).

In general, EC50 refers to the concentration needed to bring the measured effect to its halfway point. For orientation: solubility means the concentration that dissolves in the medium under given conditions.

One data set deals with human SSTR2 (Homo sapiens (Human), UniProt P30874). Kind of data set: Functional cAMP assay for SSTR2 agonists. Format: cell-based. As to conditions: inhibition of cAMP activities via human SST2R; CHO-K1 cells stably expressing human SSTR2. On the procedure:
General overview: All five SSTR subtypes are Gi coupled G-protein coupled receptors (GPCRs) that lead to decreases in intracellular cyclic AMP (cAMP) when activated by an agonist. […] Human SSTR2 intracellular cAMP assay is described below. The human SSTR1, 3, 4 and 5 assays follow the same protocol of SSTR2.
The cells are cultured at 37° C., 5% CO2 and 95% humidity. […] The cells are incubated for 20 minutes at 37° C. […] The cells are treated with 50 μL of lysis buffer (HRTF cAMP kit, Cisbio). The lysate is transferred to 384-well plates and cAMP detection and visualization antibodies are added and incubated for 1-24 hours at room temperature. The time-resolved fluorescent signal is read with a Tecan M1000Pro multiplate reader. The intracellular cAMP concentrations are calculated by regression to a standard curve and are plotted vs. the concentration of the compounds of the invention and the EC50 of the compounds are calculated using standard methods. All data manipulations are in GraphPad Prism v6.
In general terms: Cyclic AMP is a second messenger, typically raised through Gs and lowered through Gi signalling.

Data set [1] is described as follows: Solubility in water, FaSSGF and FaSSIF (slurry, HPLC). The class given is physicochemical. Conditions: slurried at 37° C. for 2 days; for solubility at 2 days: 37 °C, thermodynamic from solid. On the procedure:
The salt forms were slurried in water, Fasted State Simulated Gastric Fluid (FaSSGF), and Fasted State Simulated Intestinal Fluid (FaSSIF) at 37° C. for 2 days. Part of the slurry was filtered using a […] syringe filter to recover the supernatant for solubility measurement and the rest was filtered to recover the remaining solid for XRPD analysis.
A calibration curve was developed for measuring concentration via HPLC. Compound A was added to a 100 mL volumetric flask and then filled to the volume with HPLC grade ethanol. […] A 30 minute gradient method with Solvent A as water with 0.1% TFA and solvent B as Methanol:Acetonitrile (1:1) was used.
The calibration correlation was used to measure the solubility of the salt forms. From the clear saturated solution, 0.1 mL liquid was transferred into a 10 mL vial and then filled to the volume with methanol. The solution was then directly injected into the HPLC.

A short description of data set [2]: Dynamic Vapor Sorption (DVS). Conditions: for XRPD after DVS analysis: DVS between 2 and 95% RH. Format: physicochemical. On the procedure:
Dynamic Vapor Sorption (DVS) was done using a DVS Intrinsic 1. The sample is loaded into a sample pan and suspended from a microbalance. A typical sample mass for DVS measurement is 25 mg. Nitrogen gas bubbled through distilled water provides the desired relative humidity.
A typical measurement includes the steps: • 1—Equilibrate at 50% RH • 2—50% to 2%. (50%, 40%, 30%, 20%, 10% and 2%) • a. Hold minimum of 5 mins and maximum of 60 minutes at each humidity. The pass criteria is less than 0.002% change • 3—2% to 95% (2%, 10%, 20%, 30%, 40%, 50%, 60%, 70%, 80%, 90%, 95%) • a. Hold minimum of 5 mins and maximum of 60 minutes at each humidity. The pass criteria is less than 0.002% change • 4—95% to 2% (95%, 80%, 70%, 60%, 50%, 40%, 30%, 20%, 10%, 2%) • a. Hold minimum of 5 mins and maximum of 60 minutes at each humidity. The pass criteria is less than 0.002% change • 5—2% to 50% (2%, 10%, 20%, 30%, 40%, 50%) • a. Hold minimum of 5 mins and maximum of 60 minutes at each humidity. The pass criteria is less than 0.002% change

A short description of data set [3]: Thermal study (TGA/DSC heating followed by XRPD). Format: physicochemical. Conditions: heated by TGA/DSC, cooled to RT. On the procedure: Differential Scanning calorimetry (DSC) was done using a Mettler Toledo DSC3+. Aluminum crucible with cramped pinned lid were used. The heating rates are usually 10° C. per minute from 30 to 250° C. Thermogravimetric Analysis (TGA) was done using a Mettler Toledo TGA/DSC3+. Aluminum crucible with cramped pinned lid were used. The heating rates are usually 10° C. per minute from 30 to 250° C. […] These peaks were evaluated using thermal analysis and XRPD techniques. Compound A-HCl was heated to various temperatures using TGA/DSC followed by cooling to room temperature and analysis using XRPD. […] The following thermal treatments were performed: Sample 1: heated the salt to 100° C. and cooled to RT followed by XRPD; Sample 2: heated the salt to 150° C. and cooled to RT followed by XRPD; Sample 3: heated the salt to 200° C. and cooled to RT followed by XRPD; Sample 4: heated the salt to 250° C. and cooled to RT followed by XRPD; and Sample 5: heated the salt to 295° C. and cooled to RT followed by XRPD.

Where [4] appears, read: Fasted State Simulated Gastric Fluid (FaSSGF), fassgf or other biorelevant, Fasted State Simulated Gastric Fluid, read-out: Solubility in FaSSGF.
The mark [5] stands for this setting: Fasted State Simulated Intestinal Fluid (FaSSIF), fassif, Fasted State Simulated Intestinal Fluid, read-out: Solubility in FaSSIF.

≈ marks a conversion by molar mass, not a printed value. Structures can show the parent of a compound that is named as a salt. Where two headings read alike, the source gives them in different places.

Sequence of human SSTR2 (P30874 whole entry): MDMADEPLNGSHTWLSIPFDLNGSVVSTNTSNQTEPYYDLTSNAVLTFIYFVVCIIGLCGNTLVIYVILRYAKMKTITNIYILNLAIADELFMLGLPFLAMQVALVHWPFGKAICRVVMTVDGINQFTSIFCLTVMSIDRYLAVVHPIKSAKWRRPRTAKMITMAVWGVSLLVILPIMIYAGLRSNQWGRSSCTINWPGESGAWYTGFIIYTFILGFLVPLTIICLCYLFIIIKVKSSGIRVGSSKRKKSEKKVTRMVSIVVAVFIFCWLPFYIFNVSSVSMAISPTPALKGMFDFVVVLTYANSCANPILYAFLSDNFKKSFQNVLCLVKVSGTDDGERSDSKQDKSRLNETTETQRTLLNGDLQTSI

Turning to `O/N=C/c1cccc(-c2ccc3ncc(-c4cc(F)cc(F)c4)c(N4CC[C@@H]5NCCO[C@H]5C4)c3c2)c1O` [Compound 1-1, 2-{4-[(4aS,8aS)-octahydro-1H-pyrido[3,4-b][1,4]oxazin-6-yl]-3-(3,5-difluorophenyl)quinolin-6-yl}-6-[(1E)-(hydroxyimino)methyl]phenol], the EC50 on human SSTR2 was less than 0.01 µM.
Same read-out and setting: the same measure for `CO/N=C/c1ccnc(-c2ccc3ncc(-c4cc(C)cc(F)c4)c(N4CC[C@@H]5NCCO[C@H]5C4)c3c2)c1N` [Compound 1-2, 2-{4-[(4aS,8aS)-octahydro-1H-pyrido[3,4-b][1,4]oxazin-6-yl]-3-(3-fluoro-5-methylphenyl)quinolin-6-yl}-4-[(1E)-(methoxyimino)methyl]pyridin-3-amine]: less than 0.01 µM; for `CO/N=C/c1ccnc(-c2ccc3ncc(-c4cc(F)cc(Cl)c4)c(N4CC[C@@H]5NCCO[C@H]5C4)c3c2)c1N` [Compound 1-3, 2-{4-[(4aS,8aS)-octahydro-1H-pyrido[3,4-b][1,4]oxazin-6-yl]-3-(3-chloro-5-fluorophenyl)quinolin-6-yl}-4-[(1E)-(methoxyimino)methyl]pyridin-3-amine]: less than 0.01 µM.
On the same count and under the same terms, the same measure for `Cc1cc(F)cc(-c2cnc3ccc(-c4nccc(C#N)c4N)cc3c2N2CC[C@@H]3NCCO[C@H]3C2)c1` [Compound 1-4, 2-{4-[(4aS,8aS)-octahydro-1H-pyrido[3,4-b][1,4]oxazin-6-yl]-3-(3-fluoro-5-methylphenyl)quinolin-6-yl}-3-aminopyridine-4-carbonitrile]: less than 0.01 µM.
Still for that read-out and setting: under `N#Cc1ccnc(-c2ccc3ncc(-c4cc(F)cc(Cl)c4)c(N4CC[C@@H]5NCCO[C@H]5C4)c3c2)c1N` [Compound 1-5, 2-{4-[(4aS,8aS)-octahydro-1H-pyrido[3,4-b][1,4]oxazin-6-yl]-3-(3-chloro-5-fluorophenyl)quinolin-6-yl}-3-aminopyridine-4-carbonitrile] stands less than 0.01 µM.
The compound `Nc1c(/C=N/O)ccnc1-c1ccc2ncc(-c3cc(F)cc(F)c3)c(N3CC[C@@H]4NCCO[C@H]4C3)c2c1` [Compound 1-6, 2-{4-[(4aS,8aS)-octahydro-1H-pyrido[3,4-b][1,4]oxazin-6-yl]-3-(3,5-difluorophenyl)quinolin-6-yl}-4-[(1E)-(hydroxyimino)methyl]pyridin-3-amine] showed an EC50 on human SSTR2 of less than 0.01 µM.
Same read-out and setting: under `N#Cc1ccnc(-c2ccc3ncc(-c4cccc(F)c4)c(N4CC[C@@H]5NCCO[C@H]5C4)c3c2)c1N` [Compound 1-7, 2-{4-[(4aS,8aS)-octahydro-1H-pyrido[3,4-b][1,4]oxazin-6-yl]-3-(3-fluorophenyl)quinolin-6-yl}-3-aminopyridine-4-carbonitrile] stands less than 0.01 µM.
On the same count and under the same terms, the same measure for `Cc1ccnc(-c2ccc3ncc(-c4cccc(F)c4)c(N4CC[C@@H]5NCCO[C@H]5C4)c3c2)c1N` [Compound 1-8, 2-{4-[(4aS,8aS)-octahydro-1H-pyrido[3,4-b][1,4]oxazin-6-yl]-3-(3-fluorophenyl)quinolin-6-yl}-4-methylpyridin-3-amine]: less than 0.01 µM.
Still for that read-out and setting: the same measure for `Cc1cc(F)cc(-c2cnc3ccc(-c4cccc(C#N)c4O)c(F)c3c2N2CCC(N)CC2)c1` [Compound 1-9, 3-[4-(4-aminopiperidin-1-yl)-5-fluoro-3-(3-fluoro-5-methylphenyl)quinolin-6-yl]-2-hydroxybenzonitrile]: less than 0.01 µM; for `Cc1cc(F)cc(-c2cnc3cc(F)c(-c4cccc(C#N)c4O)cc3c2N2CCC(N)CC2)c1` [Compound 1-10, 3-[4-(4-aminopiperidin-1-yl)-7-fluoro-3-(3-fluoro-5-methylphenyl)quinolin-6-yl]-2-hydroxybenzonitrile]: less than 0.01 µM.
On human SSTR2, `N#Cc1cccc(-c2ccc3ncc(-c4cc(F)cc(F)c4)c(N4CCC(N)CC4)c3c2)c1O` [Compound A, 3-(4-(4-amino-piperidin-1-yl)-3-(3,5-difluoro-phenyl)-quinolin-6-yl)-2-hydroxy-benzonitrile] showed an EC50 of less than 0.01 µM. For the same compound, the solubility at 2 days in data set [1] (setting [4]) is 2.43 mg/mL (≈ 5320 µM); in data set [1] (setting [5]) it was 0.013 mg/mL (≈ 28.5 µM). Besides, in data set [1] (water, listed as Compound A (free base)), the “Solubility in Water” value was found to be 0.005 mg/mL (≈ 11 µM).
For `N#Cc1cccc(-c2ccc3ncc(-c4cc(F)cc(F)c4)c(N4CCC(N)CC4)c3c2)c1O` [Compound A-2HCl, 3-[4-(4-amino-piperidin-1-yl)-3-(3,5-difluoro-phenyl)-quinolin-6-yl]-2-hydroxy-benzonitrile dihydrochloride], the “Solubility in FaSSGF” value in data set [1] (Fasted State Simulated Gastric Fluid, dihydrochloride) was 3.69 mg/mL. For the same compound, the “Solubility in FaSSIF” value in data set [1] (Fasted State Simulated Intestinal Fluid, dihydrochloride) is 0.011 mg/mL. Also, in data set [1] (water, dihydrochloride), the “Solubility in Water” value worked out at 5.63 mg/mL. The “XRPD after DVS analysis” value in data set [2] is reported as “unchanged”. For the same compound, the reversible water uptake is reported as roughly 18 % w/w in data set [2] (between 2 and 95% RH); roughly 9 % w/w in data set [2] (between 15 and 75% RH).
In the case of `Cl.N#Cc1cccc(-c2ccc3ncc(-c4cc(F)cc(F)c4)c(N4CCC(N)CC4)c3c2)c1O` [Compound A-HCl, 3-[4-(4-amino-piperidin-1-yl)-3-(3,5-difluoro-phenyl)-quinolin-6-yl]-2-hydroxy-benzonitrile monohydrochloride], the solubility at 2 days in data set [1] (setting [4]) was 2.12 mg/mL; in data set [1] (setting [5]), 0.01 mg/mL; in data set [1] (water, water, water, read-out: Solubility in Water), 0.83 mg/mL. Also, in data set [2], the “XRPD after DVS analysis” value was “unchanged”. For the same compound, the reversible water uptake in data set [2] (between 2 and 95% RH) is recorded as roughly 4.5 % w/w; in data set [2] (between 15 and 75% RH) it was roughly 2.3 % w/w. Further, in data set [3], the “temperature up to which the solid is intact” value is “up to 200 °C”.
